# US6441049B2, “Method of treating neurodegenerative disorders via inhibition of amyloid beta peptide binding” (Ortho-McNeil Pharmaceutical, Inc., priority 1998, dated 2002)
# Where two headings read alike, the source gives them in different places. Bridge positions count the residues as written; N and C are the ends.
# How the values were obtained:
# [1] = test system: Aβ1-42 mediated inhibition of ACh release in rat cortical synaptosomes; test: Amelioration of the Aβ1-42 mediated inhibition of ACh release in rat cortical synaptosomes; assay type: cell-based
# [2] = biological target: α7 subtype nAChR homomers (Homo sapiens, UniProt P36544); conditions: cited from earlier work
# [3] = biological target: 206-216 stretch of the human α7 nAChR (Homo sapiens, UniProt P36544); conditions: for % α7 nAChR 206-216 Binding: inhibitors 1 uM to 10 uM
# Experimental: A 2-5 ug quantity of the 11 amino acid peptide comprised of the 206-216 stretch of the α7 nAChR (N-Ac, C(O)NH2) are added to a 96-well microtiter plate in 50 mL 10 mM HEPES, pH 7.4, or any buffer 50 ul. ^125I-β-amyloid1-40 (2000 Ci/mmol, 50 pM) was added to the wells in the presence and absence of inhibitors (1 uM to 10 uM) dissolved in 1 uL of 30% or 100% DMSO. Unbound ligands were removed and bound radioactivity was measured using a Microbeta liquid scintillation counter.
# Aβ aggregation [4] = biological target: T1, Aβ aggregation (Homo sapiens, UniProt P05067); test: Aβ aggregation assay on Synthaloid plates with labelled Aβ1-40; assay type: biochemical
# T1 construct: 100 nM of fluo-Aβ1-40 in 100 μl of each well of the 96-well Synthaloid plate; purchased Amersham Pharmacia Biotech (125I-Aβ1-40); Advanced Bioconcepts (fluo-Aβ1-40)
# Experimental: Aβs are known to form aggregates leading to the formation of amyloid plaques that are characteristic of Alzheimer's disease. […] We have validated this aggregation assay using both ^125I-Aβ1-40 and fluo-Aβ1-40 in a buffer containing 50 mM HEPES, pH 7.4, 0.1% BSA, 10% FCS and protease inhibitors. About 500 pM of ^125I-Aβ1-40 or 100 nM of fluo-Aβ1-40 in 100 μl of each well of the 96-well Synthaloid plate was allowed to incubate for 2.5 hr at room temperature in the presence or absence of inhibitors. At the end of the incubation, unbound protein in the wells was removed by three washes using the above buffer. The amount of bound protein which represented Aβ aggregation was measured either by scintillation counting or fluorescence measurements.
# [5] = biological target: T2, alpha-7 nAChRs (Homo sapiens); test: 125I-Aβ1-40 binding to alpha-7 nAChRs (SK-N-MC cell membranes) on wheat germ agglutinin SPA beads; conditions: read-out: IC50, inhibition of 125I-Aβ1-40 binding to SK-N-MC cells
# T2 construct: alpha-7 nAChR contained SK-N-MC cell membranes were immobilized; endogenous in cells; host or cells: SK-N-MC cell membranes
# Experimental: Alpha-7 nAChRs were immobilized on wheat germ agglutinin coupled yittrium SPA beads and allowed to incubate with ^125I-Aβ1-40 in the presence of various concentrations of cold Aβ1-40 or Aβ1-42.
# [6] = test system: acetylcholine release from guinea pig hippocampus synaptosomes; test: K+-evoked 3H-acetylcholine release from synaptosomes, effect of Aβs; assay type: cell-based
# Experimental: Synaptosomes from guinea pig hippocampus were incubated with 0.1 μM ^3H-choline and then subjected to repeated washes to remove unincorporated ^3H-choline. The synaptosomes were treated with 65 mM K^+ for 30 seconds to elicit 3H-acetylcholine release.
# Aβ aggregation [7] = biological target: T1, Aβ aggregation; test: Aβ aggregation assay on Synthaloid plates with labelled Aβ1-40; assay type: biochemical; remark: listed apart in the source
# T1 sequence (P05067 672-711 limits assumed): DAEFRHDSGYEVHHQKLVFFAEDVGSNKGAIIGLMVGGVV
# T2 sequence (P05067 672-711): as the sequence (P05067 672-711 limits assumed) above
# α7 subtype nAChR homomers, sequence (P36544 23-502): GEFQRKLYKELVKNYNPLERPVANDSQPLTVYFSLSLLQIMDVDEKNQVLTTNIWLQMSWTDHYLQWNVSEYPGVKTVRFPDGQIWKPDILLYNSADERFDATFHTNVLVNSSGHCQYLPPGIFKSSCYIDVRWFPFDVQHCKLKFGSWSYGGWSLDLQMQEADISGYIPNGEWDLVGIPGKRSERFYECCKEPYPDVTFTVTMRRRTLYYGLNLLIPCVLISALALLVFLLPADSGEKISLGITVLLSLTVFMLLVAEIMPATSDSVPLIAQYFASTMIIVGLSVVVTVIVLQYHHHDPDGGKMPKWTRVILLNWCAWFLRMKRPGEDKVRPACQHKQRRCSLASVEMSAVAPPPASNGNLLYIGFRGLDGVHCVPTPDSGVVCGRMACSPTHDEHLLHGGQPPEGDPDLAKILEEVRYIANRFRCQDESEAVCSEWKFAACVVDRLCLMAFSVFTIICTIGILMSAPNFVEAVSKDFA
Compound,Amelioration of the Aβ1-42 Meditated Inhibition of ACh Release in Rat Cortical Synaptosomes (%) ([1]; at 1 μM),Amelioration of the Aβ1-42 Meditated Inhibition of ACh Release in Rat Cortical Synaptosomes (%) ([1]; at 10 μM),Inhibition of ligand binding to the 206-216 peptide [3],further results
"Ac-GIPGKRSERFYECCK-NH2 (cysteine pairing not given here) [human alpha-7 nAChR200-214, peptide stretch of the human alpha-7 nAChR]",71% at 1 μM,79% at 10 μM,,
α-bungarotoxin [reference compound],,,inhibited,Kd [2]: 0.65 to 1.7 nM
Ac-YECC-NH2 [human alpha-7 nAChR210-213],59% at 1 μM,72% at 10 μM,,
"CCCN(CCC)[C@@H]1Cc2c(O)ccc(O)c2C[C@H]1C (racemic) [Compound 9, 5,8-Dihydroxy-trans-2-di(N-propylamino)-3-methyl-1,2,3,4-tetrahydronaphthalene]",,,inhibited,"inhibition at 10 µM (Aβ aggregation [4]; 10 μM, read-out: % Inh Agg. (conc μM)): > 90%; IC50 (Aβ aggregation [4]; Synthaloid plate, 2.5 hr, room temperature, read-out: IC50, inhibition of Aβ aggregation): 10 nM; IC50 [5]: 0.3 nM; Effect on acetylcholine release of Aβ after pretreatment with compound ([6]; 10 nM compound and 100 pM of either Aβ1-40 and Aβ1-42 prior to K+ stimulation): no effect on acetylcholine release; % ACh Release at 10 μM [6]: 94%; IC50 ([6]; Cavia porcellus, read-out: ACh Release (IC50)): 100 nM; % α7 nAChR 206-216 Binding ([3]; […]): 94%; Effect of prolonged incubation on amyloid aggregates (time course) (Aβ aggregation [7]): resulted in disaggregation"
Ac-SERFYECCKEP-NH2 [human alpha-7 nAChR206-216 oxidized (cyclic) CC: Ac-SERFYECC] (disulfide 7-8 (inferred)) [206-216 peptide with oxidized (cyclic) CC],82% at 1 μM,84% at 10 μM,,
SERFYECCKEP [206-216 peptide without Ac and NH2 end groups],10% at 1 μM,22% at 10 μM,,
Ac-SERFYECCKEP-NH2 [human alpha-7 nAChR206-216 Ac-SERFYECCKEP-NH2] (cysteine pairing not given here),77% at 1 μM,81% at 10 μM,inhibited,
C#CCN(CCC)C1Cc2c(OP(=O)(c3ccccc3)c3ccccc3)ccc(OP(=O)(c3ccccc3)c3ccccc3)c2CC1C (stereo not shown) [Compound 57],,,,% Inh Agg. (conc μM) (Aβ aggregation [4]; 10 μM): <30 (10) %; % ACh Release at 10 μM [6]: 11%; % α7 nAChR 206-216 Binding ([3]; 125I-β-amyloid1-40 50 pM): 63%
